Test results reported in patent publication US9346813B2, “Substituted pyrrolo[2,3-d]pyrimindines as CDK9 kinase inhibitors” (AbbVie Inc., priority 2014, dated 2016).
pIC50: −log10 of the molar value.

biological target: T1, CDK9/Cyclin T1 (Homo sapiens, UniProt P50750); assay: CDK9 enzyme protocol (LANCE ULight TR-FRET kinase assay); assay type: biochemical; conditions: 4 nM CDK9/Cyclin T1, 1000 μM ATP, 100 nM U-light MBP peptide, 30 minutes
T1 construct: purchased Carna Biosciences 04-110
Procedure: CDK9 enzyme activities were measured using LANCE ULight TR-FRET kinase assay reagents (PerkinElmer, Waltham, Mass.). Compounds were directly added in 100% DMSO to white low volume assay plates (Perkin Elmer Proxiplate 6008289) using a Labcyte Echo acoustic dispenser. Assay reagents in serine/threonine kinase assay buffer containing 20 mM HEPES, 10 mM MgCl2, 100 mM Na3VO4, and 0.0075% Triton X-100. were added for final reaction mixture concentrations of 1000 μM ATP, 100 nM U-light MBP peptide (Perkin Elmer TRF0109M) and reaction initiated with 4 nM CDK9/Cyclin T1 (Carna Biosciences 04-110). The kinase reaction was carried out for 30 minutes before addition of stopping buffer to a final of 20 mM EDTA and 0.5 nM of LANCE Ultra Europium anti-phospho-MBP antibody (PerkinElmer TRF0201M) in LANCE detection buffer (PerkinElmer CR97-100). The reaction was equilibrated for 1 hour and the signal read in the Perkin Elmer Envision in TR-FRET mode (excitation at 320 nm and emission at 615/665 nm).

T1 sequence (P50750 whole entry): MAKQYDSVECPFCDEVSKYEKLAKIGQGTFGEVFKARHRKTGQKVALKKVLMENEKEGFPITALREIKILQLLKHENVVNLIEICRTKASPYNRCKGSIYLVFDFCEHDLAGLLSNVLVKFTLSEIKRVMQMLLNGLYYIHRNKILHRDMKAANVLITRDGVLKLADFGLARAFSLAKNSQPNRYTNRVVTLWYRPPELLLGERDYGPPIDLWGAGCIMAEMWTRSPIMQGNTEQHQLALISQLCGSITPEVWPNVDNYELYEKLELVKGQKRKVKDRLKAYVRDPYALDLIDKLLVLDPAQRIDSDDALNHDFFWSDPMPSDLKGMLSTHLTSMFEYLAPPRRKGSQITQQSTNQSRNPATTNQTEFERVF
T1 sequence (O60563 whole entry partner): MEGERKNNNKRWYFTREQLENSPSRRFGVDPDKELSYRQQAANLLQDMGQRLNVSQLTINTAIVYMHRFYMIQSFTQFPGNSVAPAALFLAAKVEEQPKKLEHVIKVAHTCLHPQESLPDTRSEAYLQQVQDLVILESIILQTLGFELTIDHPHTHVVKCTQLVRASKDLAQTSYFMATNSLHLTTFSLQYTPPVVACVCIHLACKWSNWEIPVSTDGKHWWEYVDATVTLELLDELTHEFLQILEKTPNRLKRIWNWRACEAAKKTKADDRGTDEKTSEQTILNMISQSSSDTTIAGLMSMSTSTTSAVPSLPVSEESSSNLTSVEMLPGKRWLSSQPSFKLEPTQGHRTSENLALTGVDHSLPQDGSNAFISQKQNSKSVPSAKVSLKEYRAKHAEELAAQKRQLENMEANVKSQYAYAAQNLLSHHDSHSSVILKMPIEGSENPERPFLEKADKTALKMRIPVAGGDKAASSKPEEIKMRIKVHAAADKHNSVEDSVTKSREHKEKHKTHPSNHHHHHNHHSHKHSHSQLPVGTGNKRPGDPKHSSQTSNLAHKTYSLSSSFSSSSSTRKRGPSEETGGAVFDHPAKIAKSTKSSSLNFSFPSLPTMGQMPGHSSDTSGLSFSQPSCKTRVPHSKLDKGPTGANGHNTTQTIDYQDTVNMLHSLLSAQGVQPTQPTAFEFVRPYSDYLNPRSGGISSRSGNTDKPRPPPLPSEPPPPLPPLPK

Going from `COc1ccc(F)cc1-c1ncnc2[nH]c(C3CCN(C)CC3)cc12` [Example 2, 4-(5-fluoro-2-methoxyphenyl)-6-(1-methylpiperidin-4-yl)-7H-pyrrolo[2,3-d]pyrimidine] to `CCOc1ccc(F)cc1-c1ncnc2[nH]c(C3=CCNCC3)cc12` [Example 67, 4-(2-ethoxy-5-fluorophenyl)-6-(1,2,3,6-tetrahydropyridin-4-yl)-7H-pyrrolo[2,3-d]pyrimidine], the pIC50 falls from 6.96 to 6.52 (0.44 log units). The first is the more potent here.

Going from `CS(=O)(=O)N1CC=C(c2cc3c(-c4cc(NCc5ccccn5)ccc4F)ncnc3[nH]2)CC1` [Example 33, 4-fluoro-3-{6-[1-(methylsulfonyl)-1,2,3,6-tetrahydropyridin-4-yl]-7H-pyrrolo[2,3-d]pyrimidin-4-yl}-N-(pyridin-2-ylmethyl)aniline] to `Cc1ccc(F)c(-c2ncnc3[nH]c(C4=CCN(S(C)(=O)=O)CC4)cc23)c1` [Example 50, 4-(2-fluoro-5-methylphenyl)-6-[1-(methylsulfonyl)-1,2,3,6-tetrahydropyridin-4-yl]-7H-pyrrolo[2,3-d]pyrimidine], the pIC50 falls from 6.52 to 6.00 (0.52 log units). The first is the more potent here.

Going from `Cc1cc(Cl)cc(-c2ncnc3[nH]c(C4=CCN(S(C)(=O)=O)CC4)cc23)c1F` [Example 41, 4-(5-chloro-2-fluoro-3-methylphenyl)-6-[1-(methylsulfonyl)-1,2,3,6-tetrahydropyridin-4-yl]-7H-pyrrolo[2,3-d]pyrimidine] to `CS(=O)(=O)N1CC=C(c2cc3c(-c4ccc(F)cc4F)ncnc3[nH]2)CC1` [Example 46, 4-(2,4-difluorophenyl)-6-[1-(methylsulfonyl)-1,2,3,6-tetrahydropyridin-4-yl]-7H-pyrrolo[2,3-d]pyrimidine], the pIC50 rises from 4.93 to 6.08 (1.15 log units). The second is the more potent here.

`CCCCOc1ccc(F)cc1-c1ncnc2[nH]c(C3=CCN(S(C)(=O)=O)CC3)cc12` [Example 42, 4-(2-butoxy-5-fluorophenyl)-6-[1-(methylsulfonyl)-1,2,3,6-tetrahydropyridin-4-yl]-7H-pyrrolo[2,3-d]pyrimidine] and `CCCOc1ccc(F)cc1-c1ncnc2[nH]c(C3=CCN(S(C)(=O)=O)CC3)cc12` [Example 49, 4-(5-fluoro-2-propoxyphenyl)-6-[1-(methylsulfonyl)-1,2,3,6-tetrahydropyridin-4-yl]-7H-pyrrolo[2,3-d]pyrimidine] are within 0.2 log units of each other in pIC50: 5.92 for the first, 5.89 for the second.

Going from `Cc1ccc(OC(C)C)c(-c2ncnc3[nH]c(C4=CCN(S(C)(=O)=O)CC4)cc23)c1` [Example 43, 4-[5-methyl-2-(propan-2-yloxy)phenyl]-6-[1-(methylsulfonyl)-1,2,3,6-tetrahydropyridin-4-yl]-7H-pyrrolo[2,3-d]pyrimidine] to `COc1ccc(C)cc1-c1ncnc2[nH]c(C3=CCN(S(C)(=O)=O)CC3)cc12` [Example 44, 4-(2-methoxy-5-methylphenyl)-6-[1-(methylsulfonyl)-1,2,3,6-tetrahydropyridin-4-yl]-7H-pyrrolo[2,3-d]pyrimidine], the pIC50 rises from less than 4.90 to 6.21. The second is the more potent here.

Compared with `CS(=O)(=O)N1CC=C(c2cc3c(-c4ccccc4C(F)(F)F)ncnc3[nH]2)CC1` [Example 47, 6-[1-(methylsulfonyl)-1,2,3,6-tetrahydropyridin-4-yl]-4-[2-(trifluoromethyl)phenyl]-7H-pyrrolo[2,3-d]pyrimidine], `CS(=O)(=O)N1CC=C(c2cc3c(-c4ccccc4OC(F)(F)F)ncnc3[nH]2)CC1` [Example 58, 6-[1-(methylsulfonyl)-1,2,3,6-tetrahydropyridin-4-yl]-4-[2-(trifluoromethoxy)phenyl]-7H-pyrrolo[2,3-d]pyrimidine] is lower in pIC50: 5.85 for the first, less than 4.90 for the second.

First: CS(=O)(=O)Nc1cccc(-c2ncnc3[nH]c(C4=CCN(S(C)(=O)=O)CC4)cc23)c1 [Example 48, N-(3-{6-[1-(methylsulfonyl)-1,2,3,6-tetrahydropyridin-4-yl]-7H-pyrrolo[2,3-d]pyrimidin-4-yl}phenyl)methanesulfonamide]
Second: CS(=O)(=O)N1CC=C(c2cc3c(-c4cccc(OC(F)(F)F)c4)ncnc3[nH]2)CC1 [Example 56, 6-[1-(methylsulfonyl)-1,2,3,6-tetrahydropyridin-4-yl]-4-[3-(trifluoromethoxy)phenyl]-7H-pyrrolo[2,3-d]pyrimidine]
The pIC50 of the first is 0.74 log units higher: 6.54 for the first, 5.80 for the second. The first is the more potent here.

First: CS(=O)(=O)N1CC=C(c2cc3c(-c4cc(C(F)(F)F)ccc4F)ncnc3[nH]2)CC1 [Example 51, 4-[2-fluoro-5-(trifluoromethyl)phenyl]-6-[1-(methylsulfonyl)-1,2,3,6-tetrahydropyridin-4-yl]-7H-pyrrolo[2,3-d]pyrimidine]
Second: CC(C)Oc1ccc(F)c(-c2ncnc3[nH]c(C4=CCN(S(C)(=O)=O)CC4)cc23)c1 [Example 52, 4-[2-fluoro-5-(propan-2-yloxy)phenyl]-6-[1-(methylsulfonyl)-1,2,3,6-tetrahydropyridin-4-yl]-7H-pyrrolo[2,3-d]pyrimidine]
The pIC50 of the first is lower: less than 4.90 for the first, 5.00 for the second. The second is the more potent here.

`CCCOc1ccc(C)cc1-c1ncnc2[nH]c(C3=CCN(S(C)(=O)=O)CC3)cc12` [Example 53, 4-(5-methyl-2-propoxyphenyl)-6-[1-(methylsulfonyl)-1,2,3,6-tetrahydropyridin-4-yl]-7H-pyrrolo[2,3-d]pyrimidine] and `CCCCOc1ccc(F)c(-c2ncnc3[nH]c(C4=CCN(S(C)(=O)=O)CC4)cc23)c1` [Example 54, 4-(5-butoxy-2-fluorophenyl)-6-[1-(methylsulfonyl)-1,2,3,6-tetrahydropyridin-4-yl]-7H-pyrrolo[2,3-d]pyrimidine] are within 0.2 log units of each other in pIC50: 5.55 for the first, 5.39 for the second.

Going from `Cn1cc(-c2ncnc3[nH]c(C4=CCN(S(C)(=O)=O)CC4)cc23)cn1` [Example 57, 4-(1-methyl-1H-pyrazol-4-yl)-6-[1-(methylsulfonyl)-1,2,3,6-tetrahydropyridin-4-yl]-7H-pyrrolo[2,3-d]pyrimidine] to `COc1ccncc1-c1ncnc2[nH]c(C3=CCN(S(C)(=O)=O)CC3)cc12` [Example 59, 4-(4-methoxypyridin-3-yl)-6-[1-(methylsulfonyl)-1,2,3,6-tetrahydropyridin-4-yl]-7H-pyrrolo[2,3-d]pyrimidine], the pIC50 rises from 5.62 to 6.04 (0.42 log units). The second is the more potent here.

`CS(=O)(=O)N1CC=C(c2cc3c(N4CCOCC4)ncnc3[nH]2)CC1` [Example 60, 6-[1-(methylsulfonyl)-1,2,3,6-tetrahydropyridin-4-yl]-4-(morpholin-4-yl)-7H-pyrrolo[2,3-d]pyrimidine] and `CS(=O)(=O)N1CC=C(c2cc3c(N4CCCC4)ncnc3[nH]2)CC1` [Example 62, 6-[1-(methylsulfonyl)-1,2,3,6-tetrahydropyridin-4-yl]-4-(pyrrolidin-1-yl)-7H-pyrrolo[2,3-d]pyrimidine] are within 0.2 log units of each other in pIC50: 5.40 for the first, 5.30 for the second.

`CS(=O)(=O)N1CC=C(c2cc3c(N4CCC(F)(F)CC4)ncnc3[nH]2)CC1` [Example 63, 4-(4,4-difluoropiperidin-1-yl)-6-[1-(methylsulfonyl)-1,2,3,6-tetrahydropyridin-4-yl]-7H-pyrrolo[2,3-d]pyrimidine] and `CS(=O)(=O)N1CC=C(c2cc3c(N4CC(F)(F)C4)ncnc3[nH]2)CC1` [Example 64, 4-(3,3-difluoroazetidin-1-yl)-6-[1-(methylsulfonyl)-1,2,3,6-tetrahydropyridin-4-yl]-7H-pyrrolo[2,3-d]pyrimidine] are within 0.2 log units of each other in pIC50: 5.89 for the first, 5.70 for the second.

In the case of `CCOc1ccc(F)cc1-c1ncnc2[nH]c(C3=CCN(C(=O)OC(C)(C)C)CC3)cc12` [Example 66, tert-butyl 4-[4-(2-ethoxy-5-fluorophenyl)-7H-pyrrolo[2,3-d]pyrimidin-6-yl]-3,6-dihydropyridine-1(2H)-carboxylate], the pIC50 was 5.82.
